{"source": "patent US12491220B2", "about": "“Compositions containing indole-derived metabolites and methods of use thereof” (Imvela Corp., priority 2024, dated 2025)", "key": {"AhR [1]": {"target": "T1, AhR (Homo sapiens, UniProt P35869)", "T1 sequence (P35869 11-848)": "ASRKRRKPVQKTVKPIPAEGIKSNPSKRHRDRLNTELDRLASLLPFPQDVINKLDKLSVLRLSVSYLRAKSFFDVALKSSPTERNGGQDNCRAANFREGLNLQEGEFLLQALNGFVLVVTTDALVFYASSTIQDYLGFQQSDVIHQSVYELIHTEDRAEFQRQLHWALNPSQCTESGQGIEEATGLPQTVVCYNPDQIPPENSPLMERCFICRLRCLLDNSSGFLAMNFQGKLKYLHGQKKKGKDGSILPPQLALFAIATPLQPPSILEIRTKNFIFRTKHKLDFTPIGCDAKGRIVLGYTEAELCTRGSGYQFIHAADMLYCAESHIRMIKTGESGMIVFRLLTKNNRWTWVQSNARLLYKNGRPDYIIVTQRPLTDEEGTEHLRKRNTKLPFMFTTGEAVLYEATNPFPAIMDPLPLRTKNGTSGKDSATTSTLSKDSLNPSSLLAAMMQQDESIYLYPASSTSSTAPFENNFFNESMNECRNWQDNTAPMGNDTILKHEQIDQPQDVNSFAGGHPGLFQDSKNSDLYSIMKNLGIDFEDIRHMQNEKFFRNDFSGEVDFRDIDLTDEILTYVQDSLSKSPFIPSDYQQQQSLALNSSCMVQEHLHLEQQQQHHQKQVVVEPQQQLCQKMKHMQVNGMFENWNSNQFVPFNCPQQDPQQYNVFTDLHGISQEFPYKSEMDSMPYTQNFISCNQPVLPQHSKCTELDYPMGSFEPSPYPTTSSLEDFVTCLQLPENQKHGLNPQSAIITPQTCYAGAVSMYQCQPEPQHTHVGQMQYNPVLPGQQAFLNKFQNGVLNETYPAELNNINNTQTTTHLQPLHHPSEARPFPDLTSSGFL", "assay": "AhR activation in human cell line expressing AhR, in vitro luminescence (Example 1)", "type": "cell-based", "conditions": "200 PM, FIG. 5, normalized to methylcholanthrene", "protocol": "(§1) The utility of ILA and IAld in multiple host was validated by an in vitro assay. Human or canine cell lines expressing AhR were exposed to ILA or IAld at […], and AhR activation was assayed using in vitro luminescence."}, "AhR [2]": {"target": "T2, AhR (Canis lupus familiaris, UniProt A0A8I3RSX6)", "T2 sequence (A0A8I3RSX6 1-853)": "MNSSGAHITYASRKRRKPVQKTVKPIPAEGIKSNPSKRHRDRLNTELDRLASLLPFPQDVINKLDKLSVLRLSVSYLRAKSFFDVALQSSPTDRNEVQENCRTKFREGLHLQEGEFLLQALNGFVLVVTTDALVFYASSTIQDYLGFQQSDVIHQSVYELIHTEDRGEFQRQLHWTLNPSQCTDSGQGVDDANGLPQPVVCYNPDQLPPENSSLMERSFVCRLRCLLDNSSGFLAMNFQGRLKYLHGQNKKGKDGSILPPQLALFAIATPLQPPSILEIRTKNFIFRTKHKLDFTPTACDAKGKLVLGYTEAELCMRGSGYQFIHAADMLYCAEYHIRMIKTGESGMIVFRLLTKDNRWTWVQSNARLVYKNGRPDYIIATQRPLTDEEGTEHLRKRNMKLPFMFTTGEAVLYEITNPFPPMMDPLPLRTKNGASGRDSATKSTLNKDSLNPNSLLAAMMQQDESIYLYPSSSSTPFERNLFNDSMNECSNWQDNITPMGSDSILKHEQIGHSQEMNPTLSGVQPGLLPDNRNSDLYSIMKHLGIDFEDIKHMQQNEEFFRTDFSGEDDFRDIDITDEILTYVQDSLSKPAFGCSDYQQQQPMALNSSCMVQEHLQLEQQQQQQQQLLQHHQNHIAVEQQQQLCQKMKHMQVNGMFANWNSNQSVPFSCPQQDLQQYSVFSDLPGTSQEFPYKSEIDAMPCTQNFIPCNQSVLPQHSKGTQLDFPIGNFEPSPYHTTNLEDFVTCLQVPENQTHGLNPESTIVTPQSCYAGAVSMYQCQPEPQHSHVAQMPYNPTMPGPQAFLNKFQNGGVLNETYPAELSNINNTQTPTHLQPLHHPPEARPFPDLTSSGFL", "assay": "AhR activation in canine cell line expressing AhR, in vitro luminescence (Example 1)", "type": "cell-based", "conditions": "200 PM, FIG. 5, normalized to methylcholanthrene", "protocol": "as §1"}}}
{"smiles": "O=Cc1c[nH]c2ccccc12", "note": "[IAld, indole-3-carboxaldehyde]", "values": [{"measurement": "AhR activation", "setting": "AhR [1]", "value": "AhR activation was observed"}, {"measurement": "AhR activation", "setting": "AhR [2]", "value": "AhR activation was observed"}]}
{"smiles": "O=C(O)C(O)Cc1c[nH]c2ccccc12", "note": "(stereo not shown) [ILA, indole-3-lactic acid]", "values": [{"measurement": "AhR activation", "setting": "AhR [1]", "value": "AhR activation was observed"}, {"measurement": "AhR activation", "setting": "AhR [2]", "value": "AhR activation was observed"}]}
